Test results: patent publication US20060229338A1, “2,3'-bipyridines derivatives as selective cox-2 inhibitors” (priority 2003, published 2006)

Tests used:
[1] = target: T1, COX-1 (Homo sapiens, UniProt P23219); experiment: COX-1 activity in human whole blood (TXB2 by EIA after calcium ionophore A23187); assay type: cell-based; settings: 24 h at 37° C., A23187 25 μM, TXB2 levels
T1 construct: Fresh blood from healthy volunteers; from tissue; host or cells: fresh heparinized human whole blood from healthy volunteers
Protocol: (§1) COX-1 and COX-2 Activities in Human Whole Blood
Fresh blood from healthy volunteers who had not taken any non-steroidal anti-inflammatory drugs for at least 7 days prior to blood extraction was collected in heparinized tubes (20 units of heparin per ml). For the COX-1 activity determination, 500 μl aliquots of blood were incubated with either 5 μl vehicle (dimethylsulphoxide) or 5 μl of a test compound for 24 h at 37° C. Calcium ionophore A23187 (25 μM) was added 20 min before stopping the incubation. Plasma was separated by centrifugation (10 min at 13000 rpm) and kept at −30° C. until TXB2 levels were measured using an enzyme immunoassay kit (EIA).
The effect of the compounds was evaluated by incubating each compound at five to six different concentrations with triplicate determinations. IC50 values were obtained by non-linear regression using InPlot, GraphPad software on an IBM computer.

[2] = target: T2, COX-2 (Homo sapiens, UniProt P35354); experiment: COX-2 activity in human whole blood (PGE2 by EIA after LPS induction); assay type: cell-based; settings: for IC50: LPS 10 μg/ml, 24 h at 37° C., PGE2 levels
T2 construct: incubated in the presence of LPS (10 μg/ml) for 24 h at 37° C. in order to induce the COX-2 expression; from tissue; host or cells: fresh heparinized human whole blood from healthy volunteers, LPS-stimulated
T2 sequence (P35354 18-604): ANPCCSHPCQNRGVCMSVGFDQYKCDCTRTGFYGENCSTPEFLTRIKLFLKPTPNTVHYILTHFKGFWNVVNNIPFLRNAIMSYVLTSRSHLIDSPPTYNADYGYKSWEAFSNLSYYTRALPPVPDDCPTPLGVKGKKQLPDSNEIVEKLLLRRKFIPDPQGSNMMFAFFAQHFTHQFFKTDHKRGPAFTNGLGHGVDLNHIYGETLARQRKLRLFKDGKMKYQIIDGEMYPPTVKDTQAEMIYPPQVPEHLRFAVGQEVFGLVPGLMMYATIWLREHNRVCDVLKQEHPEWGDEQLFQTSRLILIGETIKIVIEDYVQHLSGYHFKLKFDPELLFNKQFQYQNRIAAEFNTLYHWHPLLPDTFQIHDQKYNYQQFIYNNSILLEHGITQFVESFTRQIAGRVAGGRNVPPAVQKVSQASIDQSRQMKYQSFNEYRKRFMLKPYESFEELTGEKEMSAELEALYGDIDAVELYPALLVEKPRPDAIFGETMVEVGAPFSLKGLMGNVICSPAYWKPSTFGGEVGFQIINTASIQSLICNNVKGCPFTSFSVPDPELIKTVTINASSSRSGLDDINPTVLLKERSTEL
Protocol: as §1
For the COX-2 activity determination, 500 μl aliquots of blood were incubated in the presence of LPS (10 μg/ml) for 24 h at 37° C. in order to induce the COX-2 expression (Patriagnani et al., J. Pharm. Exper. Ther. 271; 1705-1712 (1994)). Plasma was separated by centrifugation (10 min at 13000 rpm) and kept at −30° C. until PGE2 levels were measured using an enzyme immunoassay kit (EIA). The effects of inhibitors were studied by incubating each compound (5 μl aliquots) at five to six different concentrations with triplicate determinations in the presence of LPS for 24 hours. IC50 values were obtained by non-linear regression using InPlot, GraphPad software on an IBM computer.

T1 sequence (P23219 24-599): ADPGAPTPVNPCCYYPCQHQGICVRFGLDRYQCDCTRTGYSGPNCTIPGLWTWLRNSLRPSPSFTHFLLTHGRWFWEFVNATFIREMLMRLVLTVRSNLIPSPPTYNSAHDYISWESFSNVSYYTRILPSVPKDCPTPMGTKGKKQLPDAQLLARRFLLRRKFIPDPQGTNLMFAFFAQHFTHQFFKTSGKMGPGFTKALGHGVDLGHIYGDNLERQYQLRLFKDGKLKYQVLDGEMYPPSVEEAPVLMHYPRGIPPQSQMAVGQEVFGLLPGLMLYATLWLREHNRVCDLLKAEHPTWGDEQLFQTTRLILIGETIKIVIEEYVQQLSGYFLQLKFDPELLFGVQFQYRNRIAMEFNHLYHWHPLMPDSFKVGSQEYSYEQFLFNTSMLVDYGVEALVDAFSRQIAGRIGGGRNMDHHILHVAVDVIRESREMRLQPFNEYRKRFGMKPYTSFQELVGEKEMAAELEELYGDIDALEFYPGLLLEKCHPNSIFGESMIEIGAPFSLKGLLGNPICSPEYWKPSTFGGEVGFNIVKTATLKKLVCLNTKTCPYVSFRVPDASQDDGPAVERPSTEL

Compound	IC50 [1]	IC50 [2]	Ratio COX-1/COX-2 ([2]; ratio of COX-1/COX-2 IC50 values)
Cc1ccc(-c2ncc(Cl)cc2-c2ccc([S+](C)[O-])cc2)cn1 (racemic) [5-chloro-6′methyl-3-[4-(methylsulfinyl)phenyl]-2,3′-bipyridine (racemate), 5-Chloro-6′-methyl-3-[4-(methylsulfinyl)phenyl]-2,3′-bipyridine]	45.5 µM	3.7 µM	12.3
Cc1ccc(-c2ncc(Cl)cc2-c2ccc([S+](C)[O-])cc2)cn1 (single isomer, unassigned) [5-chloro-6′methyl-3-[4-(methylsulfinyl)phenyl]-2,3′-bipyridine (Enantiomer 1a), 5-Chloro-6′-methyl-3-[4-(methylsulfinyl)phenyl]-2,3′-bipyridine (Enantiomer 1a)]	20.2 µM	–	–
Cc1ccc(-c2ncc(Cl)cc2-c2ccc([S+](C)[O-])cc2)cn1 (single isomer, unassigned) [5-chloro-6′methyl-3-[4-(methylsulfinyl)phenyl]-2,3′-bipyridine (Enantiomer 1b), 5-Chloro-6′-methyl-3-[4-(methylsulfinyl)phenyl]-2,3′-bipyridine (Enantiomer 1b)]	77.8 µM	3.5 µM	–
